What was measured:
Type in all cases: biochemical
firefly luciferase [1] = molecular target: T1, firefly luciferase (Photinus pyralis, UniProt P08659); test: TCEP-mediated firefly luciferase reaction with DTT series (Example 5); conditions: 33.5 mM TCEP; for signal decrease from first reading cycle to 11 minutes 34 seconds later: no added DTT
Procedure: A common solution was prepared by combining stock solutions of Tris/Mg buffer, D-luciferin, TCEP, and ATP. This solution was prepared by combining 12 ml of 0.1 M Tris, 10 mM MgCl2, pH 8.0, 187.5 μl of 10 mM D-luciferin in 0.1 M Tris, pH 8.0, […] 0.5 M TCEP, and 30 μl of an ATP stock solution (50 mM ATP in 0.1 M Tris, pH 8.0) and 1.02 ml of 0.1 M Tris, pH 8.0. A 150 μl aliquot of this solution was added to 100 μl of 50 mM DTT stock solution (50 mM DTT in 0.1 M Tris, pH 8.0) for a final DTT concentration of 20 mM, and another 1.35 ml aliquot of the solution received 0.9 ml 0.1 M Tris, pH 8.0. The 20 mM DTT reaction solution was further diluted with the second aliquot to give a final DTT concentration series of […], and 0 mM DTT. In this series of reaction mixtures with varying concentrations of DTT, the final luciferin, magnesium, and TCEP concentrations were 75.5 μM luciferin, 4.8 mM magnesium, and 33.5 mM TCEP and 238 μM ATP. Other reaction mixtures with varying DTT concentrations were also prepared in like fashion, but with a final ATP concentration held constant at either 59.5, 29.75 or 14.875 μM, which was achieved by further dilution of the ATP solution with 0.1 M Tris, pH 8.
Firefly luciferase was diluted from a stock solution (2 μl of 14.7 mg/ml) with 0.1 M Tris, pH 8.0, containing 2 mg/ml bovine serum albumin. 10 μl aliquots containing 181 pg of enzyme were aliquoted into the wells of an opaque white 96-well microplate, after which 100 μl of the reaction mixtures with varying DTT concentrations were added. The plate was immediately placed into an Orion Luminometer, and light output from the wells was measured with sequential plate reading cycles, each cycle allowing the wells of the plate to be read with a time interval of approximately 2.25 minutes.
FIGS. 10 and 11 illustrate the results of this experiment. FIG. 10 illustrates the results obtained where the final ATP concentration of the reaction mixture was 238 μM, and FIG. 11 illustrates the results obtained where the final ATP concentration of the reaction mixture was 30 μM. Both graphs relate the observed RLU at each reading cycle expressed as a relative percentage of the signal obtained with the well receiving no DTT supplementation at the first reading cycle, with this signal being assigned 100%.

firefly luciferase [2] = molecular target: T1, firefly luciferase; test: ATP assay with TCEP in firefly luciferin-luciferase reaction (Example 4); conditions: 5 mM DTT; 33.3 mM TCEP; 0-500 μM ATP
Procedure: A common solution was prepared by combining stock solutions of Tris/Mg buffer, D-luciferin, and TCEP. A 2.25 ml aliquot of this solution contained 1.2 ml of 0.1 M Tris, 10 mM MgCl2, pH 8.0, 18.75 μl of 10 mM D-luciferin in 0.1 M Tris, pH 8.0, 165 μl of 0.5 M TCEP, with the remaining volume being 0.1 M Tris, pH 8.0. 0.5 ml of this mixture was removed and to it was added 11 μl of an ATP stock solution (50 mM ATP in 0.1 M Tris, pH 8.0) and 39 μl of 0.1 M Tris, pH 8.0; the remaining 1.75 ml of mixture received 175 μl of 0.1 M Tris, pH 8.0. The ATP-containing aliquot was then serially diluted with the non-ATP-containing mixture to yield a final ATP concentration series of 500, 250, 125, 62.5, 31.25, 15.625, and 0 μM. The non-ATP-containing mixture served as the control for zero ATP concentration. In this series of reaction mixtures with varying concentrations of ATP, the final luciferin, magnesium, and TCEP concentrations were 75.8 μM luciferin, 4.8 mM magnesium, and 33.3 mM TCEP. […]
Firefly luciferase was diluted from a stock solution (2 μl of 14.7 mg/ml) with 0.1 M Tris, pH 8.0 containing 2 mg/ml bovine serum albumin. […] The plate was immediately placed into an Orion Luminometer and light output from the wells was measured with sequential plate reading cycles, each cycle allowing the wells of the plate to be read with a time interval of approximately 2.25 minutes. […]

firefly luciferase [3] = molecular target: T1, firefly luciferase; test: Firefly luciferase reaction with additives TCEP, CoA, DTT alone or combined (Example 3); conditions: CoA 0.5 mM, DTT 5 mM, light output then rapidly decreased
Procedure: A common firefly luciferase reaction mix was prepared by combining stock solutions of Tris/Mg buffer, D-luciferin, and ATP. A 600 μl aliquot of this mix consisted of 480 μl of 0.1 M Tris, 10 mM MgCl2, pH 8.0, 85 μl of 10 mM D-luciferin in 0.1 M Tris, pH 8.0, and 17 μl of 50 mM ATP (1889485) in 0.1 M Tris, pH 8.0. Separate aliquots of the reaction mixture were then supplemented with various combinations of additives selected from a 0.5 M TCEP solution, a stock solution of CoA (5 mM CoA in 0.1 M Tris, pH 8.0), or a stock solution of DTT (50 mM DTT in 0.1 M Tris, pH 8.0) and then brought to a final volume of 1 ml with 0.1 M Tris, pH 8.0. In such fashion, the following solutions were obtained: a solution with no additives (None), TCEP (T), TCEP plus CoA (TC), TCEP plus DTT (TD), TCEP plus CoA plus DTT (TCD), CoA (C), CoA plus DTT (CD), and DTT (D or DTT). Where used, the final concentrations of TCEP, CoA, and DTT were 50, 0.5, and 5 mM, respectively. […]
Firefly luciferase was diluted from a stock solution (2 μl of 14.7 mg/ml) with 0.1 M Tris, pH 8.0, containing 2 mg/ml bovine serum albumin. […] The plate was immediately placed into an Orion Luminometer, and light output from the plate wells was measured with sequential plate reading cycles over a one hour time frame, each cycle allowing the wells of the plate to be read with a time interval of approximately 140 seconds.

firefly luciferase [4] = molecular target: T1, firefly luciferase; test: Firefly luciferase reaction with TCEP series plus 5 mM DTT (Example 2)
Procedure: In this experiment, final TCEP concentration was varied from 0-96 mM in the reaction mixture, with the reaction mixture also containing a final concentration of DTT of 5 mM. The conditions for this experiment were identical to that shown in Example 1, but with substitution of the final addition of 50 μl of 0.1 M Tris, pH 8.0, to each solution with a final addition of 50 μl of 50 mM DTT stock solution prepared in 0.1 M Tris, pH 8.0. This experiment was also conducted simultaneously and in the same microwell plate as the experiment of Example 1.

firefly luciferase [5] = molecular target: T1, firefly luciferase; test: Firefly luciferase reaction with TCEP concentration series (Example 1); conditions: for light output as % of the original signal: 96 mM TCEP
Procedure: A common firefly luciferase reaction mix was prepared by combining stock solutions of Tris/Mg buffer, D-luciferin, and ATP. A 900 μl aliquot of this mix consisted of 720 μl of 0.1 M Tris, 10 mM MgCl2, pH 8.0, 150 μl of 10 mM D-luciferin in 0.1 M Tris, pH 8.0, and 30 μl of 50 mM ATP in 0.1 M Tris, pH 8.0. A series of buffered TCEP preparations were prepared from a neutral pH, 0.5 M TCEP solution (Pierce Chemical Company Product No. 77720) by dilutions with 0.1 M Tris, pH 8.0, as necessary for a TCEP concentration series of 300, 150, 75, 37.5, 18.75, 9.38, 4.69, and 0 mM TCEP. 450 μl of each TCEP concentration were then added separately to 900 μl aliquots of the previously prepared mixture, followed by a final addition of 50 μl of 0.1 M Tris, pH 8.0, to each solution for a final volume of 1.4 ml. The final TCEP concentrations were, therefore, approximately 96, 48, 24, 12, 6, 3, 1.5, and 0 mM and the final Mg, luciferin, and ATP concentrations were 5.14, 1.07, and 1.07 mM, respectively.
Firefly luciferase was diluted from a stock solution (2 μl of 14.7 mg/ml) with 0.1 M Tris, pH 8.0, containing 2 mg/ml bovine serum albumin. 10 μl aliquots containing 181 pg of enzyme were aliquoted into the wells of an opaque white 96-well microplate, after which 125 μl of the reaction mixtures with varying TCEP concentrations were added. The plate was immediately placed into an Orion Luminometer (Berthold Detection Systems), and light output from the plate wells was measured for 15 sequential plate reading cycles, each cycle allowing the wells of the plate to be read with a time interval of approximately 2 minutes.

Renilla luciferase = molecular target: T2, Renilla luciferase (Renilla reniformis, UniProt P27652); test: Renilla luciferase assay with or without TCEP (Example 6); conditions: 33.3 μl of 0.5 M TCEP added to 466.7 μl coelenterazine assay mixture
T2 construct: purchased Chemicon 4400
T2 sequence (P27652 1-311): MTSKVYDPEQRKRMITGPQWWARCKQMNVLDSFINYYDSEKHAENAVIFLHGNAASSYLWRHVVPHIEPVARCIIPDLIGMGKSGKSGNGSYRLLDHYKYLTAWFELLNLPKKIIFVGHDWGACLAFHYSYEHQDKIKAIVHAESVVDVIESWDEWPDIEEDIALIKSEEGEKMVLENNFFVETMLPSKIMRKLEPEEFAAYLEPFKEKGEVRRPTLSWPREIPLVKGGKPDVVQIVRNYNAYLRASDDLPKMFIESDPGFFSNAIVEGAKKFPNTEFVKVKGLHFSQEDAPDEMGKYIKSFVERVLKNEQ
Procedure: In order to ascertain whether or not TCEP would interfere with a Renilla assay, an experiment was conducted utilizing a Renilla assay mixture, with or without TCEP supplementation. A Renilla assay mixture was prepared by combining 480 μl of 0.1 M Tris, 10 mM MgCl2, 1 mM EDTA, pH 8.0, with 437.7 μl of 0.1 M Tris, pH 8.0, and 16.7 μl of a coelenterazine stock solution (59 μM coelenterazine in denatured ethanol prepared from Molecular Probes Catalog number C-6777). This solution was split into 2 aliquots of 466.7 μl, and one aliquot received 33.3 μl of 0.5 M TCEP and the other aliquot received 33.3 μl 0.1 M Tris, pH 8.0.
Renilla luciferase purchased from Chemicon (Catalog number 4400) was diluted with 1 ml phosphate-buffered saline (10 mM sodium phosphate, 150 mM NaCl, pH 7.2) and stored frozen at −80° C. in 10 μl aliquots, each aliquot containing 100 ng enzyme. An aliquot was removed and diluted with 0.1 M Tris, pH 8.0, for a concentration series of 166, 55, 18.5, and 0 pg/10 μl. 10 μl of each enzyme concentration were pipetted in duplicate to the wells of a white opaque 96-well microplate, and 100 μl of either of the TCEP containing solution or the solution without TCEP was pipetted into the wells to initiate the reaction. The plate was immediately placed into an Orion Luminometer, and light output from the wells was measured with sequential plate reading cycles.

T1 sequence (P08659 whole entry): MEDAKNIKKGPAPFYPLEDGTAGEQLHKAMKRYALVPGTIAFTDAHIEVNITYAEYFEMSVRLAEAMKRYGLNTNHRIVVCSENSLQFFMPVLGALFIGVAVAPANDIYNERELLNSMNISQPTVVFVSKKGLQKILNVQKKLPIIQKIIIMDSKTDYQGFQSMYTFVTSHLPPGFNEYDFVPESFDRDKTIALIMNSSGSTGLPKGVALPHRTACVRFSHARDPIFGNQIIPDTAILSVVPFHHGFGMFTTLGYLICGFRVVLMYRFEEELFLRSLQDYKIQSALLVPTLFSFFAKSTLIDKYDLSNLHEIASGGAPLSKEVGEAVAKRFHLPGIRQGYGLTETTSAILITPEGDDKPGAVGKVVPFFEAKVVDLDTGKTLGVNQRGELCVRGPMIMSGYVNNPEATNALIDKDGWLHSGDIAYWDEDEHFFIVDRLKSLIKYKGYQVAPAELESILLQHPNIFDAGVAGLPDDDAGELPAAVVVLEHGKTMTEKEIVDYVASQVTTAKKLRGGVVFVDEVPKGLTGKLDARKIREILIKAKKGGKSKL

SMILES	increase of initial RLU during the first cycle vs no DTT (firefly luciferase [1]; 10 mM DTT, 30 μM ATP)	increase of initial RLU during the first cycle vs no DTT (firefly luciferase [1]; 20 mM DTT, 238 μM ATP)	less light output after 11.5 minutes compared to the initial reading (firefly luciferase [1]; 20 mM DTT, 250 μM ATP)	RLUs on inclusion of DTT in the TCEP reaction mixture (firefly luciferase [2])	initial light output compared to the no addition control (firefly luciferase [3])	signal decrease from first reading cycle to 11 minutes 34 seconds later (firefly luciferase [1]; 30 μM ATP)	signal decrease from first reading cycle to 11 minutes 34 seconds later (firefly luciferase [1]; 250 μM ATP)	RLU at the fifteenth reading cycle compared to control with DTT but without TCEP (firefly luciferase [4]; 1.5-24 mM TCEP + 5 mM DTT)	initial RLU compared to the control reaction (DTT without TCEP) (firefly luciferase [4]; 1.5 or 3 mM TCEP, 5 mM DTT)	retention of originally observed light output at last reading cycle compared to control (firefly luciferase [4]; all TCEP concentrations (1.5-96 mM), 5 mM DTT)	light output as % of the original signal (firefly luciferase [5]; fourth reading cycle)	light output as % of the original signal (firefly luciferase [5]; last reading cycle)	initially observed light output compared to the control reaction (no TCEP) (firefly luciferase [5]; TCEP 1.5, 3 and 6 mM)	originally observed signal retained at the last reading cycle (firefly luciferase [5]; TCEP 1.5-96 mM, 15th reading cycle, about 2 min per cycle, 181 pg enzyme, control lost >90%)	reduction of background (no added enzyme) compared to absence of TCEP (Renilla luciferase)
O[C@H](CS)[C@H](O)CS (racemic) [DTT, dithiothreitol]	about 8%	about 34%	8.5%	elevated	increased										
O=C(O)CCP(CCC(=O)O)CCC(=O)O [TCEP, Tris(2-carboxyethyl) phosphine]						about 6%	about 6%	greater RLU	greater	greater retention	49%	32%	significantly higher	32 to 78%	50%
CC(C)(COP(=O)(O)OP(=O)(O)OC[C@H]1O[C@@H](n2cnc3c(N)ncnc32)[C@H](O)[C@@H]1OP(=O)(O)O)[C@@H](O)C(=O)NCCC(=O)NCCS [CoA, Coenzyme A]					increased										

From patent US20040219622A1, “Phosphine-containing formulations for chemiluminescent luciferase assays” (priority 2001, published 2004)
